Data from patent publication US20100056535A1, “Inhibitors of HIV-1 reverse transcriptase” (Roche Palo Alto LLC, priority 2008, published 2010).
Like-named read-outs stand apart in the source and are kept apart here.

Tests used:
[1] = test system: HXB2-strain of HIV-1 in MT4 cells; assay: Antiviral assay: protection of HIV-1-infected MT4 cells from cell death (MTT); type: cell-based
Method: Anti-HIV-1 antiviral activity was assessed using an adaptation of the method of Pauwels et al. (Pauwels et al., J Virol Methods 1988 20:309-321). The method is based on the ability of compounds to protect HIV-1-infected T lymphoblastoid cells (MT4 cells) from cell-death mediated by the infection. The endpoint of the assay was calculated as the concentration of compound at which the cell viability of the culture was preserved by 50% (‘50% inhibitory concentration’, IC50). The cell viability of a culture was determined by the uptake of soluble, yellow 3-[4,5-dimethylthiazol-2-yl]-2,5-diphenyltetrazolium bromide (MTT) and its reduction to a purple insoluble formazan salt. After solubilization, spectrophotometric methods were employed to measure the amount of formazan product.
MT4 cells were prepared to be in logarithmic-phase growth and a total of 2×10^6 cells infected with the HXB2-strain of HIV-1 at a multiplicity of 0.0001 infectious units of virus per cell in a total volume of between 200-500 microliters. The cells were incubated with virus for one hour at 37° C. before removal of virus. The cells are then washed in 0.01 M phosphate buffered saline, pH 7.2 before being resuspensed in culture medium for incubation in culture with serial dilutions of test compound. The culture medium used was RPMI 1640 without phenol red, supplemented with penicillin, streptomycin, L-glutamine and 10% fetal calf serum (GM10).
Test compounds were prepared as 2 mM solutions in dimethyl sulfoxide (DMSO). Four replicate, serial 2-fold dilutions in GM10 were then prepared and 50 microliters amounts placed in 96-well plates over a final nanomolar concentration range of 625-1.22. Fifty microliters GM10 and 3.5×10^4 infected cells were then added to each well. Control cultures containing no cells (blank), uninfected cells (100% viability; 4 replicates) and infected cells without compound (total virus-mediated cell death; 4 replicates) were also prepared. The cultures were then incubated at 37° C. in a humidified atmosphere of 5% CO2 in air for 5 days.
A fresh solution of 5 mg/mL MTT was prepared in 0.01 M phosphate buffered saline, pH 7.2 and 20 microliters added to each culture. The cultures were further incubated as before for 2 hours. They were then mixed by pipetting up and down and 170 microliters of Triton X-100 in acidified isopropanol (10% v/v Triton X-100 in 1:250 mixture of concentrated HCl in isopropanol). When the formazan deposit was fully solubilized by further mixing, the absorbance (OD) of the cultures was measured at 540 nm and 690 nm wavelength (690 nm readings were used as blanks for artifacts between wells). The percent protection for each treated culture was then calculated from the equation: […]
The IC50 can be obtained from graph plots of percent protection versus log10 drug concentration.

HIV-1 RT = HIV-1 RT (Human immunodeficiency virus type 1 group M subtype B, UniProt P03366); assay: Heteropolymer HIV Reverse Transcriptase Assay: Inhibitor IC50 Determination; type: biochemical
Method: Heteropolymer HIV Reverse Transcriptase Assay: Inhibitor IC50 Determination
HIV-1 RT assay was carried out in 96-well Millipore MultiScreen MADVNOB50 plates using purified recombinant enzyme and a poly(rA)/oligo(dT)16 template-primer in a total volume of 50 μL. The assay constituents were 50 mM Tris/HCl, 50 mM NaCl, 1 mM EDTA, 6 mM MgCl2, 5 μM dTTP, 0.15 μCi [^3H] dTTP, 5 μg/ml poly (rA) pre annealed to 2.5 μg/ml oligo (dT)16 and a range of inhibitor concentrations in a final concentration of 10% DMSO. Reactions were initiated by adding 4 nM HIV-1 RT and after incubation at 37° C. for 30 min, they were stopped by the addition of 50 μl ice cold 20% TCA and allowed to precipitate at 4° C. for 30 min. The precipitates were collected by applying vacuum to the plate and sequentially washing with 3×200 μl of 10% TCA and 2×200 μl 70% ethanol. Finally, the plates were dried and radioactivity counted in a Packard TopCounter after the addition of 25 μl scintillation fluid per well. IC50's were calculated by plotting % inhibition versus log10 inhibitor concentrations. Representative IC50 data is depicted in TABLE 2.

[2] = Human immunodeficiency virus 1, HXB2, MT4, read-out: IC50 Antiviral wt:fbs:10%
[3] = purified recombinant enzyme, poly(rA)/oligo(dT)16 template-primer, read-out: Polymerase Inhibition IC50
[4] = Human immunodeficiency virus 1, HXB2, wild type virus, MT4 cells, 10% fetal calf serum, read-out: IC50 Antiviral wt:fbs:10%

SMILES | IC50 [1, 2] [nM] | IC50 (HIV-1 RT; [3]) [nM] | IC50 [1, 4] [nM] | IC50 (HIV-1 RT) [nM]
N#Cc1cc(Cl)cc(Oc2cc(CCc3nc4ccccc4o3)[nH]c(=O)c2Cl)c1 [Compound I-19, 3-[6-(2-Benzooxazol-2-yl-ethyl)-3-chloro-2-oxo-1,2-dihydro-pyridin-4-yloxy]-5-chloro-benzonitrile] | 6.9 | 6.3 | – | –
N#Cc1cc(Cl)cc(Oc2c(F)c(CCc3ccncc3)[nH]c(=O)c2Br)c1 [Compound I-20, 3-[3-Bromo-5-fluoro-2-oxo-6-(2-pyridin-4-yl-ethyl)-1,2-dihydro-pyridin-4-yloxy]-5-chloro-benzonitrile] | 4.4 | 1.5 | – | –
C=Cc1c(Oc2cc(Cl)cc(C#N)c2)c(CC)c[nH]c1=O [II-3, 3-Chloro-5-(5-ethyl-2-oxo-3-vinyl-1,2-dihydro-pyridin-4-yloxy)-benzonitrile] | – | 5.6 | 3.3 | –
CCc1c(C)[nH]c(=O)c(Br)c1Oc1cc(Cl)cc(C#N)c1 [II-6, 3-(3-Bromo-5-ethyl-6-methyl-2-oxo-1,2-dihydro-pyridin-4-yloxy)-5-chloro-benzonitrile] | – | 7.3 | 2.4 | –
N#Cc1cc(Cl)cc(Oc2c(CSCc3ccccc3)c[nH]c(=O)c2Br)c1 [II-18, 3-(5-Benzylsulfanylmethyl-3-bromo-2-oxo-1,2-dihydro-pyridin-4-yloxy)-5-chloro-benzonitrile] | – | – | 4.2 | 0.4
